Reference: patent publication US20100261726A1, “TREATMENT OF AML” (priority 2002, published 2010)
Where two headings read alike, the source gives them in different places.

Assays:
[1] = test system: patient leukemic cells (AML samples); test: cells; type: cell-based
Procedure: (§1) After informed consent bone marrow and peripheral blood cells were obtained at diagnosis from 6 pediatric AML patients aged 0-18 years. The diagnosis is assessed by cytomorphology using FAB classification and immunophenotyping (Bennett J M et al., Br. J. Haematol. 33: 451-458, 1976). Mononuclear cells (MNC) are separated by Lymphoprep (Nycomed, Oslo, Norway) density gradients and cryopreserved in liquid nitrogen until use. Cryopreserved AML cells are thawed rapidly at 37° C., diluted in a 5× volume of normal calf serum (NCS) as described by Dokter W H et al., Leukemia 9: 425-432, 1995. The remaining pellet is T-cell depleted by sheep red blood cells and separated over lymphoprep density gradient. Remaining blast cell population contained more than 95% AML cells, hereafter referred to as AML cells and cultured in RPMI-1640 supplemented with penicillin/streptomycin and 10% fetal bovine serum.
For the leukemic samples (10,000 cells/well) of the patients a 3-day cell culture is used. […] The optical density (OD) is linearly related to the number of viable cells. Control wells contain leukemic cells only with culture media without drugs, and blank wells contain culture media only. […] The LC50 value (drug concentration needed to kill 50% of the leukemic cells) is used to compare the differences between patients and/or various drug combinations. LC50 value equation: ([% leukemic cell survival >50%]−50)/([% leukemic cell survival >50%]−[% leukemic cell survival <50%])×(drug concentration when leukemic cell survival <50%−drug concentration when leukemic cell survival >50%)+(drug concentration when leukemic cell survival >50%).

[2] = test system: HL-60 cells; test: Total cell kill assay (MTT), leukemic cell line; type: cell-based; conditions: PTK787 in different concentrations
Procedure: (§2) In vitro cellular drug resistance of leukemic HL-60 and TF-1 cells (10,000 cells/well) are assessed using a 2-day cell culture assay based on the principle that only viable cells are able to reduce 3-(4,5-dimethyl-2-thiazolyl)-2,5-diphenyl-tetrazolium bromide (MTT) (5 mg/mL in PBS added to each well for 4 hours) to a colored formazan product, measured spectrophotometrically at 520 nm. For the leukemic samples (10,000 cells/well) of the patients a 3-day cell culture is used. […] The optical density (OD) is linearly related to the number of viable cells. Control wells contain leukemic cells only with culture media without drugs, and blank wells contain culture media only. Percentage of cell survival is calculated at each drug concentration by the equation (mean OD treated wells/mean OD control wells)×100% after correction for the background found in the blank wells. The results are considered evaluable when the control wells still contain 70% or more leukemic cells (determined by MGG staining) after a 3-day culture period. The mean OD of the control wells after correction for the background at 3 days always exceeds 0.1 arbitrary units for valid results. The LC50 value (drug concentration needed to kill 50% of the leukemic cells) is used to compare the differences between patients and/or various drug combinations. […]

[3] = test system: TF-1 cells; test: Total cell kill assay (MTT), leukemic cell line; type: cell-based; conditions: PTK787 in different concentrations
Procedure: as §2

[4] = test system: TF-1 cells; test: Apoptosis shown by PI DNA labeling (cell cycle analysis); type: cell-based; conditions: dose-dependent, overnight culture, 5% in control wells
Procedure: Cells are washed with PBS and resuspended in 75% ethanol in PBS and kept at 4° C. for at least 30 minutes. Prior to analysis, cells are washed with PBS, resuspended and incubated for 30 minutes in 1 mg/mL RNase A in PBS and thereafter incubated in staining solution containing 0.05 mg/mL propidium iodide (Sigma), 1 mM EDTA and 0.1% Triton-X-100. The suspension is then passed through a nylon mesh filter and analyzed on Becton Dickinson FACScan.

[5] = test system: TF-1 cells; test: Survival assay, viable cells counted by trypan blue exclusion after 24 hours; type: cell-based
Procedure: The cell lines HL-60, TF-1, K562 and U937 are obtained from American Type Culture Collection (Manassas, Va., USA) and cultured in RPMI-1640 (Roswell Park Memorial Institute) supplemented with penicillin/streptomycin and 10% fetal bovine serum (FBS, Hyclone, Logan, Utah, USA) for U937, K562 and HL-60 cells and supplemented with GM-CSF 1 ng/mL for TF-1 cells.
(§3) Before incubation with recombinant (rec) VEGF165 (Sigma, St. Louis, […].) and/or PTK787, AML cells and/or cell lines are serum starved for 4 hours in serum free medium (X-vivo 10, Biowhitaker, Brussels, Belgium). For proliferation experiments, cells are cultured in six-well plates (Corning-Costar Corp., Cambridge, Mass., USA), at a cell density of 1×10^5 cells per well in serum free medium (X-vivo-10) for 24 hours. Cells are treated (rec VEGF165 5-100 ng/mL) or untreated (media alone) and are cultured in the presence or absence of PTK787 (5-100 nM). After 24 hours viable cells (determined by trypan blue exclusion) are counted in triplicate using a hemocytometer. Each experiment is done in triplicate, and experiments with leukemic cell lines are repeated three times.

[6] = test system: primary AML cells of pediatric AML patients; test: Patient leukemic cell survival counted by trypan blue exclusion; type: cell-based, human
Procedure: as §1, §3
Correlations are calculated using the Spearman rank correlation coefficient (rho). A paired sample non-parametric test (Wilcoxon Signed Ranks test) is used to analyze the paired viable cells (with or without VEGF, as well as with or without PTK787). A significant difference is defined as a P-value <0.05.

[7] = test system: K562 cells; test: Total cell kill assay (MTT), leukemic cell line; type: cell-based; conditions: PTK787 in different concentrations
[8] = test system: A431 epidermoid, Ls174T colon, HT-29 colon, PC-3 prostate carcinoma; conditions: HT-29, PC-3 carcinomas; cited from earlier work
[9] = Homo sapiens, read-out: LC50 value, Patient No. 1, drug alone
[10] = Homo sapiens, read-out: LC50 value, Patient No. 1, with PTK787 5 nM
[11] = Homo sapiens, read-out: LC50 value, Patient No. 1, with PTK787 10 nM
[12] = Homo sapiens, read-out: LC50 value, Patient No. 1, with PTK787 25 nM
[13] = Homo sapiens, read-out: LC50 value, Patient No. 2, drug alone
[14] = Homo sapiens, read-out: LC50 value, Patient No. 2, with PTK787 5 nM
[15] = Homo sapiens, read-out: LC50 value, Patient No. 3, drug alone
[16] = Homo sapiens, read-out: LC50 value, Patient No. 3, with PTK787 5 nM
[17] = Homo sapiens, read-out: LC50 value, Patient No. 4, drug alone
[18] = Homo sapiens, read-out: LC50 value, Patient No. 4, with PTK787 5 nM
[19] = Homo sapiens, read-out: LC50 value, Patient No. 5, drug alone
[20] = Homo sapiens, read-out: LC50 value, Patient No. 5, with PTK787 5 nM
[21] = PTK787 (25 nM) plus exogenous VEGF165

SMILES	CC50 [1, 9] [µg/mL]	CC50 [1, 10] [µg/mL]	CC50 [1, 11] [µg/mL]	CC50 [1, 12] [µg/mL]	CC50 [1, 13] [µg/mL]	CC50 [1, 14] [µg/mL]	CC50 [1, 15] [µg/mL]	CC50 [1, 16] [µg/mL]	CC50 [1, 17] [µg/mL]	CC50 [1, 18] [µg/mL]	CC50 [1, 19] [µg/mL]	CC50 [1, 20] [µg/mL]	further results
Nc1ccn([C@@H]2O[C@H](CO)[C@@H](O)[C@@H]2O)c(=O)n1 [Cytarabine, cytarabine]	400	260	250	35	5	0.6	4.7	0.23	1500	560	3	0.24	CC50 ([1]; Homo sapiens, read-out: LC50 value, Patient No. 4, with PTK787 10 nM): 10 µg/mL; CC50 ([1]; Homo sapiens, read-out: LC50 value, Patient No. 4, with PTK787 25 nM): 0.2 µg/mL
O=C1c2c(O)ccc(O)c2C(=O)c2c(NCCNCCO)ccc(NCCNCCO)c21 [Mitoxantrone, mitoxantrone]	0.23	0.16	0.19	0.03	0.0175	6.1e-05	0.043	0.0004	0.054	2.3e-05	0.0186	6.1e-05	CC50 ([1]; Homo sapiens, read-out: LC50 value, Patient No. 5, with PTK787 10 nM): 8e-07 µg/mL
Clc1ccc(Nc2nnc(Cc3ccncc3)c3ccccc23)cc1 [PTK787]													leukemic cell survival [2]: up to 1%; leukemic cell survival [3]: up to 10%; apoptosis (fraction of apoptotic cells) [4]: up to 12%; TF-1 cell survival ([5]; 25 nM PTK787, 24 hours): 21.9%; effect of PTK787 on cell survival on addition of rec VEGF ([5]; 25 and 50 nM PTK787 plus rec VEGF, TF-1 cells): can be blocked; decrease in cell survival, median [6, 21]: 15%; decrease in cell survival, range over patients [6, 21]: 0%-35.5%; decrease in cell survival, range over patients ([6]; PTK787 alone (25 nM)): 28.2%-75.4%; decrease in cell survival (cell death), median ([6]; PTK787 alone (25 nM), patient samples, p-value 0.043): 55.1%; leukemic cell survival [7]: no decrease at all; CC50 ([1]; Patient No. 1, 72 hours, read-out: LC50 value): > 25 nM; CC50 ([1]; Patient No. 2, 72 hours, read-out: LC50 value): 7.3 nM; CC50 ([1]; Patient No. 3, 72 hours, read-out: LC50 value): 5.8 nM; CC50 ([1]; Patient No. 4, 72 hours, read-out: LC50 value): 25 nM; CC50 ([1]; Patient No. 5, 72 hours, read-out: LC50 value): 7.7 nM; CC50 ([1]; Patient No. 6, 72 hours, read-out: LC50 value): 14.5 nM; growth of human carcinomas transplanted orthotopically into mice [8]: inhibits the growth; vessel density in the tumor tissues [8]: does reduce vessel density
